Tests used:
Assay type in all cases: functional, cell-based
A549 = experiment: Antiproliferative activity against human A549 cells after 72 hrs by ATPlite assay; settings: A549, 72 h
A-375 = experiment: Antiproliferative activity against human A375 cells after 72 hrs by ATPlite assay; settings: A-375, 72 h
[1] = Antiproliferative activity against human HCT116 cells after 72 hrs by ATPlite assay; settings: HCT-116, 72 h
[2] = Antiproliferative activity against human NAMALWA cells after 72 hrs by ATPlite assay; settings: NAMALVA

| SMILES | IC50 (A549) | IC50 (A-375) | IC50 [1] | IC50 [2] |
| --- | --- | --- | --- | --- |
| COc1cc2c3c(c4ccc(O)cc4c2cc1OC)CN1CCC[C@@H]1C3 | 1 nM | – | – | – |
| COc1cc2c3c(c4ccc(O)cc4c2cc1OC)CN1CCCC[C@@H]1[C@@H]3O | 1.4 nM | 0.3 nM | 0.3 nM | 1.1 nM |
| COc1cc2c3c(c4ccc(O)cc4c2cc1OC)CN1CCCC[C@@H]1C3 | 2.5 nM | 1.6 nM | 1.4 nM | 4.1 nM |
| COc1ccc2c3c(c4cc(OC)c(OC)cc4c2c1)C[C@H]1CCCCN1C3 [CRYPTOPLEURINE] | – | 1.2 nM | 0.7 nM | 2.6 nM |
| COc1ccc2c3c(c4cc(OC)c(OC)cc4c2c1)C[C@H]1CCCN1C3 [(-)-ANTOFINE] | 10 nM | – | – | – |
| COc1cc2c3c(c4ccc(O)cc4c2cc1OC)CN1CCCC[C@@H]1C3=O | 65 nM | 56 nM | 21 nM | 60 nM |
